Measurements: US20180024136A1, “Development of ABCG2-Sensitive Fluorescent Probe For Isolation of ABCG2low Neural Stem/Progenitor Cells” (National University of Singapore, priority 2015, published 2018)

Legend:
[1] = Spectroscopic properties of CF library (absorbance, emission, quantum yield, extinction coefficient); type: physicochemical; settings: 100 μM in ethanol; for QY (Φ): reference fluorescein
Description: All the chemicals and solvents were purchased from Sigma Aldrich, Alfa Aesar, Fluka, MERCK, Tocris or Acros, and used without further purification. Normal phase purifications were carried out using Merck Silica Gel 60 (particle size: 0.040-0.063 mm, 230-400 mesh). Analytical characterization was performed on a HPLC-MS (Agilent-1200 series) with a DAD detector and a single quadrupole mass spectrometer (6130 series) with an ESI probe. ^1H-NMR and ^13C-NMR spectra were recorded on Bruker Avance 300 MHz NMR spectrometers, and chemical shifts are expressed in parts per million (ppm) and coupling constants are reported as a J value in Hertz (Hz). High resolution mass spectrometry (HRMS) data was recorded on a Micro mass VG 7035 (Mass Spectrometry Laboratory at National University of Singapore (NUS)). Spectroscopic and quantum yield data were measured on spectroscopic measurements, performed on a fluorometer and UV/VIS instrument, Synergy 4 of Bioteck Company. The slit width was 1 nm for both excitation and emission, and the data analysis was performed using GraphPrism 5.0.

[2] = system: differentiated NS5 cells; experiment: CDg13 staining of differentiated NS5 cells under ABC transporter inhibitors (flow cytometry); type: cell-based, mouse; settings: inhibitor during staining
Description: (§1) Flow cytometry was performed using Attune Cytometer (Invitrogen). Hoechest33342 (2 μM) and CDg13 (1 μM) are incubated with culture media for 1 hours and detached as single cells. The collected cells were suspended in BSA- and FBS-free DMEM to prevent loss of CDg13 signal. The average fluorescence intensity of total cells in each experimental group was analyzed by Attune cytometer software for quantification study.

[3] = system: human KB3-1 cells; experiment: MTS viability assay on KB3-1 cells; type: cell-based; settings: 48 h
[4] = target: T1, ABCG2 (Homo sapiens, UniProt Q9UNQ0); experiment: Probe fluorescence in ABCG2/KB3-1 cells under Ko143; settings: ABCG2/KB3-1, 10 to 1,000 nM Ko143
T1 sequence (Q9UNQ0 1-655): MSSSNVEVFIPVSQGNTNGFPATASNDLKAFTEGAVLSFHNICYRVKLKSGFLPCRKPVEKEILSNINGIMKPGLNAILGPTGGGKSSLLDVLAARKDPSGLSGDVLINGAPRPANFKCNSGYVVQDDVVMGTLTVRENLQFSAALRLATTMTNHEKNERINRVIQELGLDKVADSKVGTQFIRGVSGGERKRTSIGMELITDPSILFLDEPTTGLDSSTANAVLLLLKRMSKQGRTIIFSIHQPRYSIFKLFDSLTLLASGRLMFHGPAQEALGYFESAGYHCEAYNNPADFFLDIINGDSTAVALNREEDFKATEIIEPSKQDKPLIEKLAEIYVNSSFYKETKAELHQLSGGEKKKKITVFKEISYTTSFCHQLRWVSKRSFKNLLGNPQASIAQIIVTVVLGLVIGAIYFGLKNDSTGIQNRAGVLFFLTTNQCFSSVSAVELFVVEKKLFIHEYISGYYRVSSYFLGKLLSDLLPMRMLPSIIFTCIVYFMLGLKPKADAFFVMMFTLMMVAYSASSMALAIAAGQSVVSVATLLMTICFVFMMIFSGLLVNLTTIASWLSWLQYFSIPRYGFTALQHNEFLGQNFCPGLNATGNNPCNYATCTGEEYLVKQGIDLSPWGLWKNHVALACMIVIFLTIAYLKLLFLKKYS

[5] = target: ABCB1 (Homo sapiens, UniProt P08183); experiment: Probe fluorescence in HCT-15 cells under verapamil; settings: HCT-15, 10 to 10,000 nM verapamil
ABCB1, sequence (P08183 whole entry): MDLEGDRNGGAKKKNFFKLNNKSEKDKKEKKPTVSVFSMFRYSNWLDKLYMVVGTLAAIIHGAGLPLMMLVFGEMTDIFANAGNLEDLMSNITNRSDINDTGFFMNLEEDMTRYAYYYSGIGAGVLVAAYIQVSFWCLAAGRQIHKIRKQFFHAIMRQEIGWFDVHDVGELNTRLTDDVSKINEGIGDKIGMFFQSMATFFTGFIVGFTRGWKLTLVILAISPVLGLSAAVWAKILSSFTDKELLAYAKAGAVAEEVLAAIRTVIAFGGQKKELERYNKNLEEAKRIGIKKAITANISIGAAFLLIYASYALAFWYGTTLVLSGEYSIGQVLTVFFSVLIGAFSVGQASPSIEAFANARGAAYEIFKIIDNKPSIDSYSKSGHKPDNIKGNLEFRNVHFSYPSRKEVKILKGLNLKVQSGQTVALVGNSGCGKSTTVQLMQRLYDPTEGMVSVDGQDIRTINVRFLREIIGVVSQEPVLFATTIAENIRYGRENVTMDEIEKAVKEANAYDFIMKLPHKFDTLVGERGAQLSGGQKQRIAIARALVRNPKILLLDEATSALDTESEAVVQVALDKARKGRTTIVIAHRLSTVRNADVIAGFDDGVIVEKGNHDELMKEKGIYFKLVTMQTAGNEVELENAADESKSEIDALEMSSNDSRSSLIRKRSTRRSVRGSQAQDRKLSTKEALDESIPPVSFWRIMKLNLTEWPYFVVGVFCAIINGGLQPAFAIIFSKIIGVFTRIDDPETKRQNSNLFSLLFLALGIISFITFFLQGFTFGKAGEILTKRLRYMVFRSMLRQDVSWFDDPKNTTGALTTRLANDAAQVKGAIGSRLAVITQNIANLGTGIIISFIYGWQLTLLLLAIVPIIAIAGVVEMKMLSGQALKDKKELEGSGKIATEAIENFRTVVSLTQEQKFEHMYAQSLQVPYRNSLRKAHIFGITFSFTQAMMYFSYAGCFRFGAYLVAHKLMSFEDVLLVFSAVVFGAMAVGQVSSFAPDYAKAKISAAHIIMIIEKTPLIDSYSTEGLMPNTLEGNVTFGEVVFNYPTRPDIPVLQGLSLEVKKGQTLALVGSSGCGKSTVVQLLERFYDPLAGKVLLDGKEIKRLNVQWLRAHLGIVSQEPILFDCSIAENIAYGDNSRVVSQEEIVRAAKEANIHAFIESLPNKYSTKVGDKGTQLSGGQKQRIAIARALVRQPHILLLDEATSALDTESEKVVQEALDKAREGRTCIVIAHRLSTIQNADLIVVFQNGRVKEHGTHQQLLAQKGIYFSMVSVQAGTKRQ

[6] = system: NS-5 cells; experiment: CDg13 staining of NS5 cells under STF31, ionomycin or Ko143; type: cell-based, mouse; settings: STF31 2 μM, ionomycin 0.1 μM, Ko143 0.5 μM
Description: FIGS. 7A-7C show CDg13 stains depending on Abcg2 activity: (A) CDg13 (1 μM) were stained for 1 hour in live (A-1) or dead cells treated with 4% PFA (A-2) (representative image of three independent experiments, and (B) and (C) NS5 cells were treated STF31 (2 μM), ionomycin (0.1 μM) or Ko143 (0.5 μM) with treatment of CDg13 and Hoechst33342 under normal media (control had same amount of DMSO (0.2%) with other drugs treated group), staining intensity is shown by epifluorescence microscopy (B) or flow cytometry (C) (bar: 50 μm).
as §1

| Abs (nm) [1] [nm] | Em (nm) [1] [nm] | QY (Φ) [1] | Molecule | further results |
| --- | --- | --- | --- | --- |
| 520 | 559 | 0.21 | C#CCNC(=O)c1ccc(-c2c3cc(Cl)c(=O)cc-3oc3cc(O)c(Cl)cc23)cc1 [CF-F11] |  |
| 520 | 553 | 0.85 | CCCCCCCCCCCCN(C)C(=O)c1ccc(-c2c3cc(Cl)c(=O)cc-3oc3cc(O)c(Cl)cc23)cc1 [CF-G2] |  |
| 520 | 552 | 0.63 | CCCCCN(CCCCC)C(=O)c1ccc(-c2c3cc(Cl)c(=O)cc-3oc3cc(O)c(Cl)cc23)cc1 [CF-G3] |  |
| 520 | 556 | 0.40 | O=C(CCCCc1ccccc1)c1ccc(-c2c3cc(Cl)c(=O)cc-3oc3cc(O)c(Cl)cc23)cc1 [CF-G4] |  |
| 520 | 557 | 0.38 | CCCC(C)NC(=O)c1ccc(-c2c3cc(Cl)c(=O)cc-3oc3cc(O)c(Cl)cc23)cc1 (stereo not drawn) [CF-G5] |  |
| 520 | 556 | 0.29 | CCOC(=O)N1CCC(NC(=O)c2ccc(-c3c4cc(Cl)c(=O)cc-4oc4cc(O)c(Cl)cc34)cc2)CC1 [CF-G6] |  |
| 520 | 559 | 0.41 | CCCCNC(=O)c1ccc(-c2c3cc(Cl)c(=O)cc-3oc3cc(O)c(Cl)cc23)cc1 [CF-G7] |  |
| 520 | 556 | 0.29 | CCC(C)NC(=O)c1ccc(-c2c3cc(Cl)c(=O)cc-3oc3cc(O)c(Cl)cc23)cc1 (stereo not drawn) [CF-G8] |  |
| 520 | 557 | 0.27 | O=C(NCC1CCCCC1)c1ccc(-c2c3cc(Cl)c(=O)cc-3oc3cc(O)c(Cl)cc23)cc1 [CF-G9] |  |
| 520 | 558 | 0.23 | CCCCCNC(=O)c1ccc(-c2c3cc(Cl)c(=O)cc-3oc3cc(O)c(Cl)cc23)cc1 [CF-G10] |  |
| 520 | 557 | 0.35 | CCC(C)(C)NC(=O)c1ccc(-c2c3cc(Cl)c(=O)cc-3oc3cc(O)c(Cl)cc23)cc1 [CF-G11] |  |
| 520 | 556 | 0.65 | CC1CCCC(NC(=O)c2ccc(-c3c4cc(Cl)c(=O)cc-4oc4cc(O)c(Cl)cc34)cc2)C1C (stereo not drawn) [CF-H2] |  |
| 520 | 553 | 0.82 | COCCN(CCOC)C(=O)c1ccc(-c2c3cc(Cl)c(=O)cc-3oc3cc(O)c(Cl)cc23)cc1 [CF-H3] |  |
| 520 | 556 | 0.63 | CCCCCCNC(=O)c1ccc(-c2c3cc(Cl)c(=O)cc-3oc3cc(O)c(Cl)cc23)cc1 [CF-H4] |  |
| 520 | 557 | 0.67 | CC1CCC(NC(=O)c2ccc(-c3c4cc(Cl)c(=O)cc-4oc4cc(O)c(Cl)cc34)cc2)CC1 (stereo not drawn) [CF-H5] |  |
| 520 | 553 | 0.65 | CC1CCCCN1C(=O)c1ccc(-c2c3cc(Cl)c(=O)cc-3oc3cc(O)c(Cl)cc23)cc1 (stereo not drawn) [CF-H6] |  |
| 520 | 557 | 0.59 | O=C(NCCc1ccccc1F)c1ccc(-c2c3cc(Cl)c(=O)cc-3oc3cc(O)c(Cl)cc23)cc1 [CF-H7] |  |
| 520 | 556 | 0.51 | O=C(NCCc1ccccc1Cl)c1ccc(-c2c3cc(Cl)c(=O)cc-3oc3cc(O)c(Cl)cc23)cc1 [CF-H8] |  |
| 520 | 558 | 0.30 | O=C(NCCc1ccccc1-c1ccccc1)c1ccc(-c2c3cc(Cl)c(=O)cc-3oc3cc(O)c(Cl)cc23)cc1 [CF-H9] |  |
| 520 | 557 | 0.38 | CC(C)CC(C)NC(=O)c1ccc(-c2c3cc(Cl)c(=O)cc-3oc3cc(O)c(Cl)cc23)cc1 (stereo not drawn) [CF-H10] |  |
| 520 | 552 | 0.32 | CCCCCCCCCCCCCCCCCCN(C)C(=O)c1ccc(-c2c3cc(Cl)c(=O)cc-3oc3cc(O)c(Cl)cc23)cc1 [CF-H11] |  |
|  |  |  | COc1cc2c(cc1OC)CN(CCc1ccc(NC(=O)c3cccc4c(=O)c5cccc(OC)c5[nH]c34)cc1)CC2 [Elacridar, elacridar] | staining of CDg13 versus DMSO control [2]: around 2.5 fold |
|  |  |  | CCOc1ccc(-c2nc3ccc(-c4nc5ccc(N6CCN(C)CC6)cc5[nH]4)cc3[nH]2)cc1 [Hoechst 33342] | death rate ([3]; 1 μM): 25%; cell death ([3]; 10 μM): 100%; fold change in fluorescence intensity [4]: up to 1.3 fold; fold change of staining [5]: up to 1.5 fold |
|  |  |  | COc1ccc2c3c([nH]c2c1)[C@H](CC(C)C)N1C(=O)[C@H](CCC(=O)OC(C)(C)C)NC(=O)[C@@H]1C3 [Ko143] | effect on CDg13 staining [6]: stained CDg13 more strongly than normal NS-5 cells; staining of CDg13 versus DMSO control [2]: around 2.5 fold |
|  |  |  | CN(C)C(=O)CCSC(SCCC(=O)O)c1cccc(/C=C/c2ccc3ccc(Cl)cc3n2)c1 (stereo not drawn) [MK571] | staining of CDg13 versus DMSO control [2]: ~1.5 fold |
|  |  |  | CCCN(CCC)S(=O)(=O)c1ccc(C(=O)O)cc1 [probenecid] | staining of CDg13 versus DMSO control [2]: no effect of probe staining |
|  |  |  | COc1ccc(CCN(C)CCCC(C#N)(c2ccc(OC)c(OC)c2)C(C)C)cc1OC (stereo not drawn) [verapamil] | staining of CDg13 versus DMSO control [2]: no effect of probe staining |
|  |  |  | Rhodamine123 | fold change in fluorescence intensity [4]: did not increase; fold change of staining [5]: up to 4.0 fold |
